In PMC8698657, “Absorption and Transport Characteristics and Mechanisms of Carnosic Acid” (Biology, 2021):
Where two headings read alike, the source gives them in different places.

Test: Trans-enterocyte transport of CA in Caco-2 cell monolayer
Format: in vitro ADME, human
Details: human
Protocol: Caco-2 were cultured in EMEM complete medium containing 10% FBS, 1% non-essential amino acids, and 1% penicillin-streptomycin double antibody, and the culture conditions were 37 °C, 5% CO2, in a constant temperature incubator [16]. We first established non-toxic dose ranges of CA in Caco-2 cells using MTT assay. Dimethylsulfoxide (DMSO) was used as the vehicle to deliver CA to the cells. The final concentration of DMSO in all experiments was 0.1% (v/v) in cell culture media. Caco-2 cells were seeded in a 96-well plate at a cell density of 5 × 10^4 cells/mL per well, and cultured under 5% CO2 and 37 °C for 24 h. A quantity of 200 μL of medium was added to each well to obtain a series of CA solutions (concentrations of 25, 50, 75, and 100 μmoL). After 48 h of treatment, Caco-2 cells were subjected to the MTT assay as described previously. For the transport study, Caco-2 cells were seeded on the apical compartment (AP) of 12-well Transwell plates at a density of 2 × 10^5 cells/mL. The complete culture medium was added into basolateral (BL) and AP compartments. The basolateral medium was replaced every other day.
CA was dissolved in HBSS solution at 50, 75, and 100 μM. The HBSS solution containing CA combined with 0.5% Tween 80, 5 mmol/L EDTA or 5% PEG 400 was prepared. The cumulative migration (Qr), apparent permeability coefficient (Papp), and the Papp value of bi-direction transport of CA were calculated according to formulas.
The 0.5 mL […] containing different concentrations of CA was added to the AP side of the 12-well Transwell plate, and 1.5 mL HBSS solution was added to the BL side. At 0, 0.5, 1, 1.5, 2, 2.5, and 3 h, 0.2 mL medium was taken from the BL side and stored at −80 °C. The TEER value of each Transwell chamber was measured.
The cryopreserved Transwell samples were transferred to a 15 mL centrifuge tube, and any remaining liquid was fully washed using 1 mL of 50% methanol solution which was also transferred to the 15 mL centrifuge tube. The mixture was vortexed for 1 min, and 6 mL of ethyl acetate solution was added to the tube and vortexed for another 2 min. The mixture was centrifuged at 6000 rpm/min at 4 °C for 10 min. The supernatant was dried under vacuum, dissolved in 5% phosphoric acid methanol solution, and filtered through a 0.22 μm microporous membrane. The concentration of CA was determined by HPLC as described above.

[1] = Caco-2, CA 50 μM, Average of 0.5-3.0 h

CC(C)c1cc2c(c(O)c1O)[C@@]1(C(=O)O)CCCC(C)(C)[C@@H]1CC2 [CA, Carnosic acid]
Papp B→A at 0.5 h, 50 μM (Caco-2, CA 50 μM, 0.5 h): 0.12 ± 0.1 ×10⁻⁶ cm/s
efflux ratio at 0.5 h, 50 μM (Caco-2, CA 50 μM, 0.5 h): 0.42
Papp A→B at 0.5 h, 50 μM (Caco-2, CA 50 μM, 0.5 h, CA alone, read-out: Papp AP to BL): 0.28 ± 0.07 ×10⁻⁶ cm/s
Papp A→B at 0.5 h, 50 μM (Caco-2, CA 50 μM, 0.5 h, read-out: Papp AP-BL): 0.28 ± 0.07 ×10⁻⁶ cm/s
Papp B→A at 1 h, 50 μM (Caco-2, CA 50 μM, 1.0 h): 0.21 ± 0.09 ×10⁻⁶ cm/s
efflux ratio at 1 h, 50 μM (Caco-2, CA 50 μM, 1.0 h): 0.58
Papp A→B at 1 h, 50 μM (Caco-2, CA 50 μM, 1.0 h, CA alone, read-out: Papp AP to BL): 0.36 ± 0.01 ×10⁻⁶ cm/s
Papp A→B at 1 h, 50 μM (Caco-2, CA 50 μM, 1.0 h, read-out: Papp AP-BL): 0.36 ± 0.01 ×10⁻⁶ cm/s
Papp B→A at 1.5 h, 50 μM (Caco-2, CA 50 μM, 1.5 h): 0.36 ± 0.06 ×10⁻⁶ cm/s
efflux ratio at 1.5 h, 50 μM (Caco-2, CA 50 μM, 1.5 h): 0.52
Papp A→B at 1.5 h, 50 μM (Caco-2, CA 50 μM, 1.5 h, CA alone, read-out: Papp AP to BL): 0.69 ± 0.09 ×10⁻⁶ cm/s
Papp A→B at 1.5 h, 50 μM (Caco-2, CA 50 μM, 1.5 h, read-out: Papp AP-BL): 0.69 ± 0.09 ×10⁻⁶ cm/s
Papp B→A at 2 h, 50 μM (Caco-2, CA 50 μM, 2.0 h): 0.49 ± 0.07 ×10⁻⁶ cm/s
efflux ratio at 2 h, 50 μM (Caco-2, CA 50 μM, 2.0 h): 0.44
Papp A→B at 2 h, 50 μM (Caco-2, CA 50 μM, 2.0 h, CA alone, read-out: Papp AP to BL): 1.11 ± 0.04 ×10⁻⁶ cm/s
Papp A→B at 2 h, 50 μM (Caco-2, CA 50 μM, 2.0 h, read-out: Papp AP-BL): 1.11 ± 0.04 ×10⁻⁶ cm/s
Papp B→A at 2.5 h, 50 μM (Caco-2, CA 50 μM, 2.5 h): 0.56 ± 0.05 ×10⁻⁶ cm/s
efflux ratio at 2.5 h, 50 μM (Caco-2, CA 50 μM, 2.5 h): 0.98
Papp A→B at 2.5 h, 50 μM (Caco-2, CA 50 μM, 2.5 h, CA alone, read-out: Papp AP to BL): 0.57 ± 0.03 ×10⁻⁶ cm/s
Papp A→B at 2.5 h, 50 μM (Caco-2, CA 50 μM, 2.5 h, read-out: Papp AP-BL): 0.57 ± 0.03 ×10⁻⁶ cm/s
Papp B→A at 3 h, 50 μM (Caco-2, CA 50 μM, 3.0 h): 0.29 ± 0.03 ×10⁻⁶ cm/s
efflux ratio at 3 h, 50 μM (Caco-2, CA 50 μM, 3.0 h): 1.32
Papp A→B at 3 h, 50 μM (Caco-2, CA 50 μM, 3.0 h, CA alone, read-out: Papp AP to BL): 0.22 ± 0.02 ×10⁻⁶ cm/s
Papp A→B at 3 h, 50 μM (Caco-2, CA 50 μM, 3.0 h, read-out: Papp AP-BL): 0.22 ± 0.02 ×10⁻⁶ cm/s
Papp B→A at 50 μM [1]: 0.33 ± 0.03 ×10⁻⁶ cm/s
efflux ratio at 50 μM [1]: 0.62
Papp A→B at 50 μM (Caco-2, CA 50 μM, Average of 0.5-3.0 h, CA alone, read-out: Papp AP to BL): 0.54 ± 0.05 ×10⁻⁶ cm/s
Papp A→B at 50 μM (Caco-2, CA 50 μM, Average of 0.5-3.0 h, read-out: Papp AP-BL): 0.53 ± 0.02 ×10⁻⁶ cm/s
Papp B→A at 0.5 h, 75 μM (Caco-2, CA 75 μM, 0.5 h): 0.91 ± 0.02 ×10⁻⁶ cm/s
efflux ratio at 0.5 h, 75 μM (Caco-2, CA 75 μM, 0.5 h): 0.88
Papp A→B at 0.5 h, 75 μM (Caco-2, CA 75 μM, 0.5 h, CA alone, read-out: Papp AP to BL): 1.03 ± 0.01 ×10⁻⁶ cm/s
Papp A→B at 0.5 h, 75 μM (Caco-2, CA 75 μM, 0.5 h, read-out: Papp AP-BL): 1.03 ± 0.01 ×10⁻⁶ cm/s
Papp B→A at 1.5 h, 75 μM (Caco-2, CA 75 μM, 1.5 h): 0.79 ± 0.07 ×10⁻⁶ cm/s
efflux ratio at 1.5 h, 75 μM (Caco-2, CA 75 μM, 1.5 h): 0.95
Papp A→B at 1.5 h, 75 μM (Caco-2, CA 75 μM, 1.5 h, CA alone, read-out: Papp AP to BL): 0.83 ± 0.01 ×10⁻⁶ cm/s
Papp A→B at 1.5 h, 75 μM (Caco-2, CA 75 μM, 1.5 h, read-out: Papp AP-BL): 0.83 ± 0.01 ×10⁻⁶ cm/s
Papp B→A at 2 h, 75 μM (Caco-2, CA 75 μM, 2.0 h): 0.62 ± 0.01 ×10⁻⁶ cm/s
efflux ratio at 2 h, 75 μM (Caco-2, CA 75 μM, 2.0 h): 0.33
Papp A→B at 2 h, 75 μM (Caco-2, CA 75 μM, 2.0 h, CA alone, read-out: Papp AP to BL): 1.84 ± 0.1 ×10⁻⁶ cm/s
Papp A→B at 2 h, 75 μM (Caco-2, CA 75 μM, 2.0 h, read-out: Papp AP-BL): 1.84 ± 0.1 ×10⁻⁶ cm/s
Papp B→A at 2.5 h, 75 μM (Caco-2, CA 75 μM, 2.5 h): 0.41 ± 0.03 ×10⁻⁶ cm/s
efflux ratio at 2.5 h, 75 μM (Caco-2, CA 75 μM, 2.5 h): 0.49
Papp A→B at 2.5 h, 75 μM (Caco-2, CA 75 μM, 2.5 h, CA alone, read-out: Papp AP to BL): 0.83 ± 0.01 ×10⁻⁶ cm/s
Papp A→B at 2.5 h, 75 μM (Caco-2, CA 75 μM, 2.5 h, read-out: Papp AP-BL): 0.83 ± 0.01 ×10⁻⁶ cm/s
Papp B→A at 3 h, 75 μM (Caco-2, CA 75 μM, 3.0 h): 0.38 ± 0.03 ×10⁻⁶ cm/s
